Measurements: publication PMC8308784, “Novel Purine Chemotypes with Activity against Plasmodium falciparum and Trypanosoma cruzi” (Pharmaceuticals, 2021)

How the values were obtained:
Format in all cases: cell-based
P. falciparum 3D7 = test: P. falciparum primary screening at three fixed concentrations; settings: average of at least three experiments; for activity at 1 µM / activity at 10 µM / activity at 100 µM: Plasmodium falciparum, read-out: Primary screening, parasite growth relative to the negative control; for activity at 1 µM: 3D7, compound at 1 µM; for activity at 10 µM: 3D7, compound at 10 µM; for activity at 100 µM: 3D7, compound at 100 µM
Procedure: Apicomplexan parasite cultures were maintained at 3% hematocrit under an atmosphere of 37 °C in 93% N2, 5% CO2, and 2% O2, following standard methods. Synchronized cultures were obtained via 5% sorbitol lysis.
[…] Conditions were tested in triplicate for every concentration, and the test was repeated when the standard deviation was above 10% for any concentration. Z-values varied between 0.83 and 0.98 in the different plates analyzed. Selected compounds (12.3% potential hit rate) were further analyzed via standard growth inhibition assays, carried out as previously described in [54]. Briefly, parasitemia was adjusted to 1–1.3%, with >90% rings after sorbitol synchronization. Two hundred microliters of parasite culture were plated in 96-well microplates and incubated for 48 h at 37 °C in the presence of decreasing concentrations of the tested compounds, in triplicate. Parasitemia was determined by fluorescence-assisted cell sorting (FACS). Non-infected RBCs and samples containing parasitized RBCs (including controls with DMSO as carrier solvent) were diluted in PBS to a final concentration of ~1–10 × 10^6 cells/mL. The cell suspension was stained with SYTO 11 (0.5 mM stock in DMSO, Thermo Fisher Scientific, Waltham, MA, USA), to a final concentration of 0.5 μM. Samples were analyzed in a Becton Dickinson FACSCalibur. Sample excitation was carried out using a 488-nm, air-cooled argon-ion laser at a power of 15 mW, using forward and side scatter to gate the RBC population, and SYTO 11 green fluorescence (530 nm, FITC filter) was collected in a logarithmic scale. The single-cell population was selected on a forward–side scattergram, and the green fluorescence from this population was analyzed. Parasitemia was expressed as the number of parasitized cells per 100 erythrocytes.
(§1) Absorbance values derived from the anti-T. cruzi assays and fluorescence values from the anti-P. falciparum and cell toxicity assays were normalized to the controls. In the primary screening at three fixed doses, the compounds’ inhibitory activity was expressed as a percentage of the negative control (100% parasitic growth). In dose–response assays, the compounds’ IC50 and TC50 values were determined with GraphPad Prism 7 software (version 7.00, 2016), using a non-linear regression analysis model defined by the following equation: Y=100 ÷(1+10^((LogIC50−X)×HillSlope))

[1] = system: T. cruzi Tulahuen strain expressing β-galactosidase; test: T. cruzi primary screening at three fixed concentrations; settings: average of at least three independent experiments; for Primary screening, growth inhibition values at 1 µM: compound at 1 µM; for Primary screening, growth inhibition values at 10 µM: compound at 10 µM
Procedure: (§2) T. cruzi parasites from the Tulahuen strain (discrete typing unit (DTU) VI) expressing β-galactosidase were maintained in culture by the infection of LLC-MK2 cells in DMEM supplemented with 2% FBS and 1% penicillin–streptomycin–glutamine (PSG), as described in [52]. When free-swimming trypomastigotes were released to the culture medium, they were centrifuged for 7 min at 2500 rpm and allowed to swim out of the pellet. Trypomastigotes were used to maintain the parasite cycle, or for the performance of the antiparasitic assays.
[…] Conditions were tested in triplicate for every concentration. Z-values varied between 0.81 and 0.92 in the different plates analyzed. Selected compounds (34.6% potential hit rate) were further analyzed via standard growth inhibition assays. The Z-values of dose–response assays correlated with those previously reported. For both assays, Vero cells and trypomastigotes from the Tulahuen T. cruzi strain expressing β-galactosidase were harvested, centrifuged, and resuspended in DMEM without phenol red supplemented with 1% PSG, 2% FBS, 1 mM sodium pyruvate, and 25 mM HEPES. Vero cells and trypomastigotes were counted, diluted at a concentration of 1 × 10^6 cells/mL each, and mixed 1:1 (v/v). Then, 100 μL of that mixture was added per well to the plates already containing the compounds. Each well contained 50,000 host cells and 50,000 parasites, i.e., multiplicity of infection (MOI) = 1. BNZ was used as control of maximal drug growth inhibition in each round, whereas each plate contained its own negative control (maximum parasite growth; Vero cells plus parasites without drugs) and positive control (minimum parasite growth; trypomastigote forms alone marking an enzymatic zero time or baseline galactosidase activity). After four days at 37 °C, 50 µL of a PBS solution containing 0.25% NP40 and 500 µM chlorophenol red-β-D-galactopyranoside (CPRG) substrate were added per well [32]. Plates were incubated at 37 °C for 4 h, and their absorbance read out at 590 nm using an Epoch Gene5 spectrophotometer.
as §1

[2] = system: T. cruzi Tulahuen strain expressing β-galactosidase; test: anti-T. cruzi dose-response growth inhibition assay (Vero cells plus trypomastigotes, CPRG readout); settings: anti-T. cruzi IC50 of non-progressed compounds; read-out: Dose-response assay IC50
Procedure: as §2
T. cruzi growth was primarily analyzed under three different concentrations ([…]) of the 81 compounds. Conditions were tested in triplicate for every concentration. Z-values varied between 0.81 and 0.92 in the different plates analyzed. Selected compounds (34.6% potential hit rate) were further analyzed via standard growth inhibition assays. The Z-values of dose–response assays correlated with those previously reported. For both assays, Vero cells and trypomastigotes from the Tulahuen T. cruzi strain expressing β-galactosidase were harvested, centrifuged, and resuspended in DMEM without phenol red supplemented with 1% PSG, 2% FBS, 1 mM sodium pyruvate, and 25 mM HEPES. Vero cells and trypomastigotes were counted, diluted at a concentration of 1 × 10^6 cells/mL each, and mixed 1:1 (v/v). Then, 100 μL of that mixture was added per well to the plates already containing the compounds. Each well contained 50,000 host cells and 50,000 parasites, i.e., multiplicity of infection (MOI) = 1. BNZ was used as control of maximal drug growth inhibition in each round, whereas each plate contained its own negative control (maximum parasite growth; Vero cells plus parasites without drugs) and positive control (minimum parasite growth; trypomastigote forms alone marking an enzymatic zero time or baseline galactosidase activity). After four days at 37 °C, 50 µL of a PBS solution containing 0.25% NP40 and 500 µM chlorophenol red-β-D-galactopyranoside (CPRG) substrate were added per well [32]. Plates were incubated at 37 °C for 4 h, and their absorbance read out at 590 nm using an Epoch Gene5 spectrophotometer.
as §1

## Cc1nc2c(NC(C)(C)C)ncnc2n1C(C)(C)C [Compound 2A]
P. falciparum 3D7; compound at 1 µM
  Primary screening, parasite growth relative to the negative control: 110.87%
P. falciparum 3D7; compound at 10 µM
  Primary screening, parasite growth relative to the negative control: 112.26%
P. falciparum 3D7; compound at 100 µM
  Primary screening, parasite growth relative to the negative control: 30.73%
[1]
  Primary screening, growth inhibition values at 1 µM: 96.86
  Primary screening, growth inhibition values at 10 µM: 88.71

## CC(C)(C)Nc1ncnc2c1ncn2C(C)(C)C [Compound 3F]
P. falciparum 3D7; compound at 1 µM
  Primary screening, parasite growth relative to the negative control: 110.21%
P. falciparum 3D7; compound at 10 µM
  Primary screening, parasite growth relative to the negative control: 108.90%
P. falciparum 3D7; compound at 100 µM
  Primary screening, parasite growth relative to the negative control: 35.36%
[2]
  IC50: 64.7 µM

## Cc1nc2c(OCc3ccccc3)ncnc2n1N(C)C [Compound 4M]
P. falciparum 3D7; compound at 1 µM
  Primary screening, parasite growth relative to the negative control: 100.27%
P. falciparum 3D7; compound at 10 µM
  Primary screening, parasite growth relative to the negative control: 101.23%
P. falciparum 3D7; compound at 100 µM
  Primary screening, parasite growth relative to the negative control: 88.99%
[1]
  Primary screening, growth inhibition values at 1 µM: 88.68
  Primary screening, growth inhibition values at 10 µM: 89.08

## CN(C)n1c(-c2ccccc2)nc2c(OCc3ccccc3)ncnc21 [Compound 4]
P. falciparum 3D7; compound at 1 µM
  Primary screening, parasite growth relative to the negative control: 97.86%
P. falciparum 3D7; compound at 10 µM
  Primary screening, parasite growth relative to the negative control: 97.42%
P. falciparum 3D7; compound at 100 µM
  Primary screening, parasite growth relative to the negative control: 96.42%
[1]
  Primary screening, growth inhibition values at 1 µM: 94.81
  Primary screening, growth inhibition values at 10 µM: 89.88

## c1ccc(COc2ncnc3c2ncn3N2CCCCC2)cc1 [Compound 13H]
P. falciparum 3D7; compound at 1 µM
  Primary screening, parasite growth relative to the negative control: 100.86%
P. falciparum 3D7; compound at 10 µM
  Primary screening, parasite growth relative to the negative control: 97.31%
P. falciparum 3D7; compound at 100 µM
  Primary screening, parasite growth relative to the negative control: 67.76%
[1]
  Primary screening, growth inhibition values at 1 µM: 92.39
  Primary screening, growth inhibition values at 10 µM: 93.99

## Cc1nc2c(OCc3ccccc3)ncnc2n1N1CCCCC1 [Compound 13M]
P. falciparum 3D7; compound at 1 µM
  Primary screening, parasite growth relative to the negative control: 101.41%
P. falciparum 3D7; compound at 10 µM
  Primary screening, parasite growth relative to the negative control: 100.79%
P. falciparum 3D7; compound at 100 µM
  Primary screening, parasite growth relative to the negative control: 87.03%
[1]
  Primary screening, growth inhibition values at 1 µM: 91.73
  Primary screening, growth inhibition values at 10 µM: 92.01

## c1ccc(COc2ncnc3c2nc(-c2ccccc2)n3N2CCOCC2)cc1 [Compound 21]
P. falciparum 3D7; compound at 1 µM
  Primary screening, parasite growth relative to the negative control: 96.68%
P. falciparum 3D7; compound at 10 µM
  Primary screening, parasite growth relative to the negative control: 87.35%
P. falciparum 3D7; compound at 100 µM
  Primary screening, parasite growth relative to the negative control: 81.22%
[2]
  IC50: 34.8 µM

## Cc1nc2c(OCc3ccccc3)ncnc2n1N1CCOCC1 [Compound 22]
P. falciparum 3D7; compound at 1 µM
  Primary screening, parasite growth relative to the negative control: 97.98%
P. falciparum 3D7; compound at 10 µM
  Primary screening, parasite growth relative to the negative control: 78.53%
P. falciparum 3D7; compound at 100 µM
  Primary screening, parasite growth relative to the negative control: 73.65%

## c1ccc(COc2ncnc3c2ncn3N2CCOCC2)cc1 [Compound 23]
P. falciparum 3D7; compound at 1 µM
  Primary screening, parasite growth relative to the negative control: 101.16%
P. falciparum 3D7; compound at 10 µM
  Primary screening, parasite growth relative to the negative control: 104.67%
P. falciparum 3D7; compound at 100 µM
  Primary screening, parasite growth relative to the negative control: 98.97%
[1]
  Primary screening, growth inhibition values at 1 µM: 93.82
  Primary screening, growth inhibition values at 10 µM: 94.90

## CN1CCN(n2c(-c3ccccc3)nc3c(OCc4ccccc4)ncnc32)CC1 [Compound 27]
P. falciparum 3D7; compound at 1 µM
  Primary screening, parasite growth relative to the negative control: 97.79%
P. falciparum 3D7; compound at 10 µM
  Primary screening, parasite growth relative to the negative control: 87.07%
P. falciparum 3D7; compound at 100 µM
  Primary screening, parasite growth relative to the negative control: 63.16%
[2]
  IC50: 33.2 µM

## Cc1nc2c(OCc3ccccc3)ncnc2n1N1CCN(C)CC1 [Compound 28]
P. falciparum 3D7; compound at 1 µM
  Primary screening, parasite growth relative to the negative control: 90.78%
P. falciparum 3D7; compound at 10 µM
  Primary screening, parasite growth relative to the negative control: 89.44%
P. falciparum 3D7; compound at 100 µM
  Primary screening, parasite growth relative to the negative control: 44.36%
[2]
  IC50: 40.4 µM

## CCOc1ncnc2c1ncn2C(C)C [MJ1]
P. falciparum 3D7; compound at 1 µM
  Primary screening, parasite growth relative to the negative control: 102.27%
P. falciparum 3D7; compound at 10 µM
  Primary screening, parasite growth relative to the negative control: 99.79%
P. falciparum 3D7; compound at 100 µM
  Primary screening, parasite growth relative to the negative control: 94.06%
[1]
  Primary screening, growth inhibition values at 1 µM: 94.41
  Primary screening, growth inhibition values at 10 µM: 97.93

## Cc1nc2c(OCc3ccccc3)ncnc2n1C(C)C [MJ5]
P. falciparum 3D7
  activity at 1 µM: 100%
  activity at 10 µM: 94.6%
  activity at 100 µM: 88.5%
[1]
  Primary screening, growth inhibition values at 1 µM: 89.81
  Primary screening, growth inhibition values at 10 µM: 90.91

## CCOc1ncnc2c1ncn2Cc1ccccc1 [MJ7]
P. falciparum 3D7
  activity at 1 µM: 104%
  activity at 10 µM: 105%
  activity at 100 µM: 53.8%
[1]
  Primary screening, growth inhibition values at 1 µM: 79.69
  Primary screening, growth inhibition values at 10 µM: 95.54

## CC(C)Oc1ncnc2c1ncn2C(C)C [MJ16]
P. falciparum 3D7
  activity at 1 µM: 111%
  activity at 10 µM: 115%
  activity at 100 µM: 102%
[1]
  Primary screening, growth inhibition values at 1 µM: 100.79
  Primary screening, growth inhibition values at 10 µM: 96.93

## Cc1nc2c(OC(C)C)ncnc2n1C(C)C [MJ17]
P. falciparum 3D7; compound at 1 µM
  Primary screening, parasite growth relative to the negative control: 105.71%
P. falciparum 3D7; compound at 10 µM
  Primary screening, parasite growth relative to the negative control: 108.49%
P. falciparum 3D7; compound at 100 µM
  Primary screening, parasite growth relative to the negative control: 94.00%
[1]
  Primary screening, growth inhibition values at 1 µM: 97.87
  Primary screening, growth inhibition values at 10 µM: 93.73
